Data as given in PMC9811578 (Chemical Science, 2022).
Non-standard residues stand in square brackets, D forms with d. Residues, ends and D or L forms follow the SMILES beside them.

Experiments:
[1] = R. Strutt and coworkers; cited from earlier work
PAMPA = format: in vitro ADME
Horizon-LBA = format: in vitro ADME; settings: not told

## Cn1c(=O)c2c(ncn2C)n(C)c1=O [Caffeine]
[1]
  permeability coefficient (DIB of DOPC, UV detector): 2.81 ± 0.0920 × 10^−4 cm s^−1

## COc1ccc(C[C@@H]2NC(=O)[C@@H](CC(C)C)NC(=O)[C@H](C(C)C)NC(=O)[C@H](CC(C)C)NC(=O)[C@@H](CC(C)C)NC(=O)[C@H]3CCCN3C2=O)cc1 [Peptide 1] (cyclo(LV[dL]Y(Me)[dP][dL]))
PAMPA
  Papp: 16.5 ± 0.9 ×10⁻⁶ cm/s
Horizon-LBA
  Papp: 300 ± 100 ×10⁻⁶ cm/s
